Patent publication US20160175249A1, “Liposomes Containing Oligopeptide Fragments of Myelin Basic Protein, a Pharmaceutical Composition and a Method for Treatment of Multiple Sclerosis” (LIPOXEN TECHNOLOGIES LIMITED, priority 2009, published 2016)

Columns and labels:
[1] = system: multiple sclerosis (cerebrospinal form, remissive course); assay: Treatment of a human subject diagnosed with multiple sclerosis (Example 7); format: in vivo; details: patient, 500 mg once every two weeks
Text: A patient diagnosed with multiple sclerosis (cerebrospinal form, remissive course), in the relapse stage, was previously subjected to repeated corticosteroid treatment. […] At the time of treatment, the patient presented with: lateral nystagmus when looking to the right, active tendon reflex, S<D in the legs, active upper abdominal reflex, absent middle and lower abdominal reflex, bilateral Babinski's symptom, foot clonus (more expressed in the right foot), no paresis in the extremities, muscle tonicity unchanged, ataxic gait, loss of balance in the Romberg stance, ataxia when performing hccl-shin test, and urine retention. The value of the patient's neurological deficit on the EDSS scale was 6.
The patient also presented with ophthalmic blanching of temporal halves of optic nerve heads. After studying the patient's PBMC, the activity of T-lymphocytcs with respect to MBP was determined at a stimulation index (SI) of 7.45. Levels of serum IgG antibodies were 75 units per ml.
With the patient's consent, the prototype peptide composition was administered once every two weeks at a dosage of 500 mg. 7 days after each injection, the patient's peripheral (venous) blood was sampled in order to determine changes in T-lymphocyte activity with respect to MBP, as well as autoantibody levels. […] At week four, the patients IgG autoantibody level increased to 112 units per mL, and T-cell SI doubled. […]

[2] = system: experimental allergic encephalomyelitis (EAE) in DA rats; assay: Treatment of EAE in DA rats with liposomally encapsulated MBP peptides (Example 5); format: in vivo; details: 150 μg per animal daily subdermally days 6-11, score 0-5
Procedure: To induce experimental allergic encephalomyelitis (EAE) in DA rats having a mass of 220-250 g ([…]), 10 μg of myelin basic protein encephalogenic peptide fragment ARTTHYGSLPQKSQRSQ (SEQ ID NO:4; Anaspec, US) emulsified in Freund's complete adjuvant (Difco, US) at a concentration of 10% (m/v) was subdermally injected into the forepaw. The rats were weighted and monitored for EAE neurological symptoms daily. The EAE symptom profile of each rate was scored according to the following scale: (0)—absence of EAE symptoms; (1)—decrease in tail tonicity; (2)—decrease in righting reflex; (3)—paresis; (4)—full paralysis; and (5)—agony or death. Intermediary symptoms were scored by increasing or decreasing the value by 0.5 units. Six days after EAE induction, animals were randomly distributed into several groups (12 animals each).
Between days six and eleven after induction, rats in each respective group were subdermally injected with the liposomal preparation described in Example 2 (emulsified in phosphate saline solution, pH 7.4), a positive control preparation of glatiramer acetate (GA; copaxone, Teva Pharmaceutical Industries Ltd, Israel), a prototype peptide: DENPVVIIFFKNIVTPRT (SEQ ID NO:5), or a buffered phosphate saline solution (pH 7.4) placebo. The peptide, Glatiramer acetate, and liposomal preparations were formulated immediately prior to administration using buffered phosphate saline solution (pH 7.4). 0.1 mL of each composition was administered daily at a concentration of 150 μg per animal.

Sequence: DENPVVIIFFKNIVTPRT (a prototype peptide) [prototype peptide used as comparator]
- clinical presentation of MS ([1]; over the course of 7 weeks): progressed slightly
- T-cell SI ([1]; week four, before treatment 7.45): doubled
- Evaluation of EAE symptom intensity, average ([2]; day 0 after EAE induction): 0.00
- Evaluation of EAE symptom intensity, average ([2]; day 1 after EAE induction): 0.00
- Evaluation of EAE symptom intensity, average ([2]; day 2 after EAE induction): 0.00
- Evaluation of EAE symptom intensity, average ([2]; day 3 after EAE induction): 0.00
- Evaluation of EAE symptom intensity, average ([2]; day 4 after EAE induction): 0.00
- Evaluation of EAE symptom intensity, average ([2]; day 5 after EAE induction): 0.00
- Evaluation of EAE symptom intensity, average ([2]; day 6 after EAE induction): 0.00
- Evaluation of EAE symptom intensity, average ([2]; day 7 after EAE induction): 0.00
- Evaluation of EAE symptom intensity, average ([2]; day 8 after EAE induction): 0.58
- Evaluation of EAE symptom intensity, average ([2]; day 9 after EAE induction): 1.33
- Evaluation of EAE symptom intensity, average ([2]; day 10 after EAE induction): 2.42
- Evaluation of EAE symptom intensity, average ([2]; day 11 after EAE induction): 2.33
- Evaluation of EAE symptom intensity, average ([2]; day 12 after EAE induction): 2.50
- Evaluation of EAE symptom intensity, average ([2]; day 13 after EAE induction): 2.17
- Evaluation of EAE symptom intensity, average ([2]; day 14 after EAE induction): 2.00
- Evaluation of EAE symptom intensity, average ([2]; day 15 after EAE induction): 1.83
- Evaluation of EAE symptom intensity, average ([2]; day 16 after EAE induction): 1.67
- Evaluation of EAE symptom intensity, average ([2]; day 17 after EAE induction): 1.33
- Evaluation of EAE symptom intensity, average ([2]; day 18 after EAE induction): 1.42
- Evaluation of EAE symptom intensity, average ([2]; day 19 after EAE induction): 1.08
- Evaluation of EAE symptom intensity, average ([2]; day 20 after EAE induction): 0.83
- Evaluation of EAE symptom intensity, average ([2]; day −1 after EAE induction): 0.00
